In PubChem BioAssay (NCI):
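Assay format: 96-well plates, 48-hour exposure. GI50: concentration for 50% inhibition of growth. TGI is the concentration that stops growth completely.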

Key:
Assay in all cases: DTP human tumour cell line panel, 48 h
[1] = tested on: BT-549 breast
[2] = tested on: CAKI-1 renal
[3] = tested on: SF-268 CNS
[4] = tested on: CCRF-CEM leukemia
[5] = tested on: T-47D breast
[6] = tested on: HOP-62 NSCLC
[7] = tested on: HT29 colon
[8] = tested on: NCI-H522 lung
[9] = tested on: HCC-2998 colon
[10] = tested on: HOP-92 NSCLC

Row | Structure (SMILES) | GI50 [1] [µM] | TGI [1] [µM] | GI50 [2] [µM] | TGI [2] [µM] | GI50 [3] [µM] | TGI [3] [µM] | GI50 [4] [µM] | TGI [4] [µM] | GI50 [5] [µM] | TGI [5] [µM] | GI50 [6] [µM] | TGI [6] [µM] | GI50 [7] [µM] | TGI [7] [µM] | GI50 [8] [µM] | TGI [8] [µM] | GI50 [9] [µM] | TGI [9] [µM] | GI50 [10] [µM] | TGI [10] [µM]
1 | COc1cc(-c2cc(/C=C/C(=O)c3ccc(F)c(F)c3)[nH]n2)cc(OC)c1OC | 4.1 | 19.3 | 2.98 | > 100 | 3.15 | > 100 | 3.08 | 47.2 | 2.45 | 27 | 4.39 | > 100 | 2.62 | 6.47 | 1.57 | 4.48 | 3.69 | 34.1 |  | 
2 | CC(C)(C)c1cc(C(=O)Nc2ccccc2C(=O)NCCN)cc(C(C)(C)C)c1 | 2.33 | 5.84 | 2.21 | 5.56 | 1.86 | 3.62 | 2.5 | 6.36 | 1.76 | 3.51 | 1.67 | 3.21 | 1.84 | 3.59 | 1.85 | 3.82 | 1.83 | 3.4 |  | 
3 | COc1ccc(C(O)c2cc3c(N)c(C(=O)Nc4ccc(Cl)cc4)sc3nc2C)cc1 (stereo not given) | 3.42 | 21.6 | 2.79 | 15.6 | 3.96 | 19.6 | 2.47 | > 100 | 3.29 | 50.5 | 3.24 | 19.2 | 2.49 | 8.73 | 4.05 | 38.1 | 3.04 | 20.8 | 2.37 | 18.3
4 | COc1cc(/C=C2\C(=O)N(Cc3ccc(Cl)cc3)c3ccccc32)cc(OC)c1OC | 2.51 | 11.6 | 2.92 | 13.8 | 2.76 | 13.7 | 1.41 | 4.82 | 2.16 | 7.72 | 3.72 | 12.5 | 3.27 | > 30.5 | 2.2 | 5.93 | 1.95 | 4.28 | 1.64 | 5.74
5 | N#CCn1c(=O)c(Oc2ccc(F)cc2F)cc2cnc(NC3CCOCC3)nc21 | 24.8 | > 25 | > 25 | > 25 | > 25 | > 25 | > 25 | > 25 | 12.3 | > 25 | > 25 | > 25 | > 25 | > 25 | 15 | > 25 | > 25 | > 25 | 15.4 | > 25
6 | O=C(Nc1ccc(Oc2ccc3nc(NC(=O)c4ccco4)[nH]c3c2)cc1)Nc1cc(C(F)(F)F)ccc1F | 2.08 | 6.05 | 1.81 | > 14.4 | 2.55 | 14.1 | 1.85 | > 25 | 2 | 8.19 | 3.44 | 10.7 | 1.18 | 6.09 | 3.03 | 9.55 | 2.44 | > 20.1 | 0.234 | 5.74
7 | COc1ccc2c(c1)OC(N)=C(C#N)C2c1cc(OC)c(OC)c(OC)c1 (stereo not given) | 0.0268 | 0.0836 | 0.107 | > 100 | 0.0642 | > 100 | 0.0337 | > 100 | > 100 | > 100 | 0.0548 | 33.2 | 0.0328 | 0.172 | 0.0194 | 0.0631 | 0.0398 | > 100 | 0.169 | > 100
8 | CC1CC2C3CCC4=CC(=O)C=CC4(C)C3(F)C(O)CC2(C)C1(O)C(=O)COP(=O)(O)O (stereo not given) | 160 | > 500 | > 500 | > 500 | > 500 | > 500 | > 500 | > 500 | > 500 | > 500 | > 500 | > 500 | > 500 | > 500 | > 500 | > 500 | > 500 | > 500 | > 500 | > 500
9 | COc1ccc2nc3cc(Cl)ccc3c(NCCCNCCO)c2c1 | 1.89 | 3.71 | 0.816 | 3.55 | 0.577 | 2.66 | 0.476 | 2.28 | 0.625 | 3.41 | 0.393 | 2.14 | 0.292 | 1.41 | 0.379 | 1.63 | 0.609 | 2.17 | 1.2 | 3.45
10 | CC(=O)Nc1ccc(C(=O)CCl)cc1 | 4.94 | 17.1 | 1.78 | 3.24 | 13.9 | 29.5 | 2.41 | 7.51 | 2.68 | 7.33 | 15 | 32.1 | 2.45 | 5.04 | 2.06 | 4.17 | 7.48 | 20.7 | 2.12 | 4.95
11 | C=C1C[C@H]2C=Nc3cc(OCCCOc4cc5c(cc4OC)C(=O)N4CC(=C)C[C@H]4C=N5)c(OC)cc3C(=O)N2C1 | 0.0126 |  | 0.0113 |  |  |  | 0.00019 | 0.0144 | 0.0244 | 3.53 |  | < 0.215 |  | 19.7 |  | 0.0309 |  | 0.0143 |  | 0.151
12 | CC(C)=CCc1cc2c(cc1O)C1=C(C(=O)C3=C(C1=O)S(=O)(=O)CCN3)C(C=C(C)C)O2 (stereo not given) | 2.31 | 4.78 |  |  | 0.917 | 4.74 | 0.696 | 8.98 | 0.714 | 7.15 | 2.33 | 4.63 | 0.634 | 2.22 | 0.568 | 1.85 | 1.48 | 3.84 | 3.31 | 7.61
